{"source": "patent US8263593B2", "about": "“Therapeutic compounds” (Allergan, Inc., priority 2008, dated 2012)", "tested_on": "lashes and adjacent hairs", "assay": "Observation of lashes and adjacent hairs in glaucoma patients treated in one eye", "format": "in vivo", "description": "In the course of treating patients having glaucoma, treatment may only be appropriate in one eye. […] The lash appearance on the lids of the treated eyes would have appeared quite attractive if it represented a bilateral phenomenon. As a result of its asymmetric nature, the long lashes on one side could be construed as disturbing from a cosmetic standpoint. A systemic examination was preformed as a result of the asymmetric phenomenon. It soon became apparent that this altered appearance was not an isolated finding. […] Definite differences could be identified to varying degrees in the lashes and adjacent hairs of all patients who were taking the drug on a unilateral basis for longer than 6 months.\nThe changes in the lashes were apparent on gross inspection in several patients once attention was focused on the issue. In those with light colored hair and lashes, the differences were only seen easily with the aid of the high magnification and lighting capabilities of the slit lamp biomicroscope. In the course of glaucoma follow-up examination, attention is generally immediately focused on the eye itself. As a result of the high power magnification needed only one eye is seen at a time and the eye is seen at a high enough power that the lashes are not in focus. […]", "data": [{"smiles": "CCNC(=O)CCC/C=C\\C[C@@H]1[C@@H](/C=C/[C@@H](O)CCc2ccccc2)[C@H](O)C[C@@H]1O", "note": "[bimatoprost]", "values": [{"measurement": "lash appearance in the treated eye versus the non-treated eye", "setting": "glaucoma patient treated in one eye only", "result": "longer, thicker, and fuller"}, {"measurement": "hair growth in treated versus control areas, multiple parameters of hair appearance", "setting": "many subjects, unilateral treatment", "result": "hair growth is stimulated"}]}]}
